Data: ChEMBL document CHEMBL5634078, “Catechol-mimicking transition-state analogues as non-oxidizable inhibitors of tyrosinases” (Eur J Med Chem, 2023)
pIC50, pKi: −log10 of the molar value.

Assays:
Mushroom tyrosinase [1] = target: T1, Mushroom tyrosinase (Agaricus bisporus, UniProt O42713+Q00024+C7FF04+C7FF05); test: Inhibition of mushroom Tyrosinase using L-DOPA as substrate assessed as inhibition constant by Michaelis-Menten analysis; assay type: protein assay
Mushroom tyrosinase [2] = target: T1, Mushroom tyrosinase; test: Binding affinity to mushroom Tyrosinase using L-DOPA as substrate assessed as inhibition constant by Michaelis-Menten analysis; assay type: protein assay
[3] = Binding affinity to Mushroom Tyrosinase assessed as inhibition constant
Mushroom tyrosinase [4] = target: T1, Mushroom tyrosinase; test: Inhibition of mushroom Tyrosinase by using L-DOPA as substrate by spectrophotometric assay; assay type: protein assay
Mushroom tyrosinase [5] = target: T1, Mushroom tyrosinase; test: Inhibition of mushroom Tyrosinase; assay type: protein assay
[6] = Inhibition of human Tyrosine kinase
Tyrosinase [7] = target: T2, Tyrosinase (Homo sapiens, UniProt P14679); test: Binding affinity to human Tyrosinase assessed as inhibition constant
T2 sequence (P14679 whole entry): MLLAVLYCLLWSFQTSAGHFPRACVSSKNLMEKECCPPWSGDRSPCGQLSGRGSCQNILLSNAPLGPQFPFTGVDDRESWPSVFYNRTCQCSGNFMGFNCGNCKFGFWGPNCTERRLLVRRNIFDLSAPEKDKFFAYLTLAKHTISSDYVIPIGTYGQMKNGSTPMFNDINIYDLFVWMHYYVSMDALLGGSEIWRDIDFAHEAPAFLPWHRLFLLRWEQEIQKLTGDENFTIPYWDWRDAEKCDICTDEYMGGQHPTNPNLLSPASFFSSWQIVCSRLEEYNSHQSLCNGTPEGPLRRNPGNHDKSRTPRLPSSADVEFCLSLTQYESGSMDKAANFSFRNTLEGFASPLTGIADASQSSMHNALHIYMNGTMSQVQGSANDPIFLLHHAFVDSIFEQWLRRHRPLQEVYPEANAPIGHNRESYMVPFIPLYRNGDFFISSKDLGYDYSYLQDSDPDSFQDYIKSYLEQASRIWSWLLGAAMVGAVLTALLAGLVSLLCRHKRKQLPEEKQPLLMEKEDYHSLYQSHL

[8] = Inhibition of Bacterial Tyrosinase; parameters: species or system Bacteria
[9] = Biniding affinity to bacterial Tyrosinase assessed as inhibition constant; parameters: species or system Bacteria
CC(C)(C)c1ccc(O)c(O)c1 [10] = test: (§1) Binding affinity to mushroom tyrosinase assessed as catalytic constant; assay type: protein assay; settings: Agaricus bisporus
[11] = test system: CC(C)NCC(O)c1ccc(O)c(O)c1; test: as §1; assay type: protein assay; settings: Agaricus bisporus
Cc1ccc(O)c(O)c1 [12] = test: as §1; assay type: protein assay; settings: Agaricus bisporus
NCCc1ccc(O)c(O)c1 [13] = test: as §1; assay type: protein assay; settings: Agaricus bisporus
[14] = test system: N[C@@H](Cc1ccc(O)c(O)c1)C(=O)O; test: as §1; assay type: protein assay; settings: Agaricus bisporus
[15] = test system: N[C@@H](Cc1ccc(O)cc1)C(=O)O; test: as §1; assay type: protein assay; settings: Agaricus bisporus
[16] = test system: N[C@H](Cc1ccc(O)c(O)c1)C(=O)O; test: as §1; assay type: protein assay; settings: Agaricus bisporus
[17] = test system: O=C(/C=C/c1ccc(O)c(O)c1)O[C@H](Cc1ccc(O)c(O)c1)C(=O)O; test: as §1; assay type: protein assay; settings: Agaricus bisporus
[18] = test system: O=C(O)/C=C/c1ccc(O)c(O)c1; test: as §1; assay type: protein assay; settings: Agaricus bisporus
O=C(O)Cc1ccc(O)c(O)c1 = test: as §1; assay type: protein assay; settings: Agaricus bisporus
[19] = test system: O=c1c(O)c(-c2ccc(O)c(O)c2)oc2cc(O)cc(O)c12; test: as §1; assay type: protein assay; settings: Agaricus bisporus
Oc1ccccc1O [20] = test: as §1; assay type: protein assay; settings: Agaricus bisporus
CC(C)(C)c1ccc(O)c(O)c1 [21] = test: (§2) Binding affinity to mushroom tyrosinase […]; assay type: protein assay; settings: Agaricus bisporus
[22] = test system: CC(C)NCC(O)c1ccc(O)c(O)c1; test: as §2; assay type: protein assay; settings: Agaricus bisporus
COc1ccc(O)cc1 [23] = test: as §2; assay type: protein assay; settings: Agaricus bisporus
Cc1ccc(O)c(O)c1 [24] = test: as §2; assay type: protein assay; settings: Agaricus bisporus
NCCc1ccc(O)c(O)c1 [25] = test: as §2; assay type: protein assay; settings: Agaricus bisporus
NCCc1ccc(O)cc1 [26] = test: as §2; assay type: protein assay; settings: Agaricus bisporus
[27] = test system: N[C@@H](Cc1ccc(O)c(O)c1)C(=O)O; test: as §2; assay type: protein assay; settings: Agaricus bisporus
[28] = test system: N[C@@H](Cc1ccc(O)cc1)C(=O)O; test: as §2; assay type: protein assay; settings: Agaricus bisporus
[29] = test system: N[C@H](Cc1ccc(O)cc1)C(=O)O; test: as §2; assay type: protein assay; settings: Agaricus bisporus
O=C(O)Cc1ccc(O)cc1 [30] = test: as §2; assay type: protein assay; settings: Agaricus bisporus
[31] = test system: O=c1c(O)c(-c2ccc(O)c(O)c2)oc2cc(O)cc(O)c12; test: as §2; assay type: protein assay; settings: Agaricus bisporus
[32] = test system: OC[C@H]1O[C@@H](Oc2ccc(O)cc2)[C@H](O)[C@@H](O)[C@@H]1O; test: as §2; assay type: protein assay; settings: Agaricus bisporus
Oc1ccc(OC2CCCCO2)cc1 [33] = test: as §2; assay type: protein assay; settings: Agaricus bisporus
Oc1ccccc1O [34] = test: as §2; assay type: protein assay; settings: Agaricus bisporus
Oc1ccccc1 [35] = test: as §2; assay type: protein assay; settings: Agaricus bisporus
COc1ccc(O)cc1 [36] = test: (§3) Binding affinity to mushroom tyrosinase assessed as catalytic constant by Michaelis-Menten analysis; assay type: protein assay; settings: Agaricus bisporus
NCCc1ccc(O)cc1 [37] = test: as §3; assay type: protein assay; settings: Agaricus bisporus
[38] = test system: N[C@H](Cc1ccc(O)cc1)C(=O)O; test: as §3; assay type: protein assay; settings: Agaricus bisporus
O=C(O)Cc1ccc(O)cc1 [39] = test: as §3; assay type: protein assay; settings: Agaricus bisporus
Oc1ccccc1 [40] = test: as §3; assay type: protein assay; settings: Agaricus bisporus
[41] = test system: O=C1/C(=C/c2ccc(O)cc2)Oc2cc(O)ccc21; test: (§4) Binding affinity to mushroom tyrosinase assessed as catalytic constant using L-DOPA as substrate by Michaelis-Menten analysis; assay type: protein assay; settings: Agaricus bisporus
[42] = test system: OC[C@H]1O[C@@H](Oc2ccc(O)cc2)[C@H](O)[C@@H](O)[C@@H]1O; test: as §4; assay type: protein assay; settings: Agaricus bisporus
[43] = test system: Oc1ccc(/C=C/c2cc(O)cc(O)c2)cc1; test: as §4; assay type: protein assay; settings: Agaricus bisporus
Oc1ccc(OC2CCCCO2)cc1 [44] = test: as §4; assay type: protein assay; settings: Agaricus bisporus
Tyrosinase [45] = target: T2, Tyrosinase; test: Binding affinity to human Tyrosinase using L-DOPA as substrate assessed as inhibition constant by Michaelis-Menten analysis
Tyrosinase [46] = target: T2, Tyrosinase; test: Inhibition of human tyrosinase using L-DOPA as substrate by spectrophotometer analysis
[47] = Binding affinity to bacterial Tyrosinase assessed as inhibition constant; parameters: species or system Bacteria

Sequence of Mushroom tyrosinase (Agaricus bisporus) (C7FF05 whole entry, looked up): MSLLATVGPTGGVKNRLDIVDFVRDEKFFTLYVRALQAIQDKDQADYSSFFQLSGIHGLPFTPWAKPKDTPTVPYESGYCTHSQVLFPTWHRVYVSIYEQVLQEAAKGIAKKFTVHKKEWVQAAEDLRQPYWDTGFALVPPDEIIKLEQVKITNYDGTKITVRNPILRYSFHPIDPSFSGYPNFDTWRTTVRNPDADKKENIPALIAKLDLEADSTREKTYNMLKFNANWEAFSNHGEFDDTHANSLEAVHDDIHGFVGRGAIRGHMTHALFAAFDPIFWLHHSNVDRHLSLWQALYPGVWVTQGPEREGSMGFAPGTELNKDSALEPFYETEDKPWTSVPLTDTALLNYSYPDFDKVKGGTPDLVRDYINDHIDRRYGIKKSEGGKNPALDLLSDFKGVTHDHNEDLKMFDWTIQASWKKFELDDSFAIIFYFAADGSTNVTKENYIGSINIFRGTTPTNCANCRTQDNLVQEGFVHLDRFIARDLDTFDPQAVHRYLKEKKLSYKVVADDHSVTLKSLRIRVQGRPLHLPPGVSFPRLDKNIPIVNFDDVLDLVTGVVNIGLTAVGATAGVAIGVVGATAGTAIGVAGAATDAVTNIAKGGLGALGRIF
Sequence of Mushroom tyrosinase (Agaricus bisporus) (C7FF04 whole entry, looked up): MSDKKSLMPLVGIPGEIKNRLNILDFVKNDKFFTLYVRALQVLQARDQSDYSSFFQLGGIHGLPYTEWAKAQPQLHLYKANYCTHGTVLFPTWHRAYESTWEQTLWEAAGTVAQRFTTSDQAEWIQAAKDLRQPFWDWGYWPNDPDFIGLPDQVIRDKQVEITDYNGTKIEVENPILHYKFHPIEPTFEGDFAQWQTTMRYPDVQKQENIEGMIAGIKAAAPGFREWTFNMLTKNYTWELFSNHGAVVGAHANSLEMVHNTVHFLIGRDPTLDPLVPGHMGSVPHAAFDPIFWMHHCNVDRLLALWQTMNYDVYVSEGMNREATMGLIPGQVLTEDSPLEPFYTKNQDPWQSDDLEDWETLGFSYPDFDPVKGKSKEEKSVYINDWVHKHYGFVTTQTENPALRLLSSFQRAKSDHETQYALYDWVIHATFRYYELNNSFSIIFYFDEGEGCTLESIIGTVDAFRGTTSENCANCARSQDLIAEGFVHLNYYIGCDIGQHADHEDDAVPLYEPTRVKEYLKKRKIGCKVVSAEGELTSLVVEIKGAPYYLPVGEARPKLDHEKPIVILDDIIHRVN
Sequence of Mushroom tyrosinase (Agaricus bisporus) (Q00024 whole entry, looked up): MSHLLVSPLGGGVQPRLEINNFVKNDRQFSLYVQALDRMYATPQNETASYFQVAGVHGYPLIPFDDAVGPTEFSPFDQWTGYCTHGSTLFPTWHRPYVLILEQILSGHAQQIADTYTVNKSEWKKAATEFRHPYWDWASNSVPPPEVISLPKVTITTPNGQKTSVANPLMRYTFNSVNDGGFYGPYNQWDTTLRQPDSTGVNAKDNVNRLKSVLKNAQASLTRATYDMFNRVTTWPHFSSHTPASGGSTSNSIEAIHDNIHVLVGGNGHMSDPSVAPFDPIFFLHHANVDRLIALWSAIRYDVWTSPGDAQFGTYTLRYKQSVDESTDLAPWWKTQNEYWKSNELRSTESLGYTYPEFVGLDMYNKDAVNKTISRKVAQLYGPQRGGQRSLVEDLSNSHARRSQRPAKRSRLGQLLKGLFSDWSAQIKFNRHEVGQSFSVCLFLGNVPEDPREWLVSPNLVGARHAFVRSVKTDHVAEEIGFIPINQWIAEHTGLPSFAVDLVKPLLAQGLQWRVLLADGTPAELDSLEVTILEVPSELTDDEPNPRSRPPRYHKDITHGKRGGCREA
Sequence of Mushroom tyrosinase (Agaricus bisporus) (O42713 whole entry, looked up): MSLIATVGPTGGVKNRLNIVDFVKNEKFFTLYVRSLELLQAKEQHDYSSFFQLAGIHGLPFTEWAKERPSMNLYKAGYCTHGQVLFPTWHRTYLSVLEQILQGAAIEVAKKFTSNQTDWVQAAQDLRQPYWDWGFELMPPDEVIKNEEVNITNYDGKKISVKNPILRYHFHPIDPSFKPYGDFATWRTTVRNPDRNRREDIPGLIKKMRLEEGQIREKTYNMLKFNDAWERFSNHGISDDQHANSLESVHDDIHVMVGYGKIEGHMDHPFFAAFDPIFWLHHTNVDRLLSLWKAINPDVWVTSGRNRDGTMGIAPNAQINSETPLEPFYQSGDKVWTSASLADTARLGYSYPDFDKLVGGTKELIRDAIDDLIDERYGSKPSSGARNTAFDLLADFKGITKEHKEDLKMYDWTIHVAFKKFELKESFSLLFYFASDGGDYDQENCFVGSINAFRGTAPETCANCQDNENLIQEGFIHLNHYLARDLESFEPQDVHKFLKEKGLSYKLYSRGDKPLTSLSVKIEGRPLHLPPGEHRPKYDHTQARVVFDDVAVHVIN

Nc1cc2ccc(O)cc2oc1=O
IC50 (Mushroom tyrosinase [1]): 53 µM

O=C1/C(=C/c2ccc(=O)n(O)c2)Oc2cc(O)cc(O)c21
Ki (Mushroom tyrosinase [2]): 1.2 µM

On1ccccc1=S
IC50 (Mushroom tyrosinase [1]): 6.1 µM

NCCn1ccc(=O)c(O)c1
pKi [3]: 4.85

O=c1cc(CSc2nnc(-c3ccc(F)cc3)o2)occ1O
IC50 (Mushroom tyrosinase [4]): 5.3 µM

CC(C)c1cccc(=O)c(O)c1 [HINOKITIOL]
Ki (Mushroom tyrosinase [2]): 0.09 µM

CN(C)c1ccc(-c2nnc(SCc3cc(=O)c(O)co3)nc2-c2ccc(N(C)C)cc2)cc1
IC50 (Mushroom tyrosinase [4]): 0.34 µM

Cc1c(O)c(=O)ccn1C [DEFERIPRONE]
IC50 (Mushroom tyrosinase [5]): 30 µM

COc1ccc(C(=O)OCc2cc(=O)c(O)co2)cc1
IC50 (Mushroom tyrosinase [5]): 2 µM

CCOC(=O)/C=C/c1cc(=O)c(O)co1
IC50 (Mushroom tyrosinase [5]): 36 µM

O=C1/C(=C/c2ccc(=O)n(O)c2)Oc2cc(O)ccc21
IC50 (Mushroom tyrosinase [1]): 1.5 µM | Ki (Mushroom tyrosinase [2]): 0.35 µM

O=c1cc(CSc2nc3ccccc3c(=O)n2CCc2ccccn2)occ1O
IC50 (Mushroom tyrosinase [4]): 0.46 µM

Cc1c(C)c2c(c(C)c1O)CCC(C)(C(=O)OCc1cc(=O)c(O)co1)O2 (centres undefined)
IC50 (Mushroom tyrosinase [5]): 5.4 µM

O=Cc1ccc(OCc2cc(=O)c(O)co2)cc1F
IC50 (Mushroom tyrosinase [5]): 5.3 µM

O=c1cc(CO)occ1O [KOJIC ACID]
pIC50 [6]: 4.51

CCCCCCn1cc(O)c(=O)cc1/C=C/c1cc(O)cc(O)c1
IC50 (Mushroom tyrosinase [5]): 16 µM

NC(=S)N/N=C/c1cc(=O)c(O)co1
IC50 (Mushroom tyrosinase [5]): 10 µM | pKi (Tyrosinase [7]): 3.59 | pIC50 [8]: 5.80

O=c1cc(CSc2nc3ccccc3s2)occ1O
IC50 (Mushroom tyrosinase [4]): > 3 µM

CCCCCCCCn1cc(O)c(=O)cc1COC(=O)[C@@H](N)Cc1ccccc1
IC50 (Mushroom tyrosinase [5]): 4 µM

CC(C)c1ccc(O)c(=O)cc1 [GAMMA-THUJAPLICIN]
Ki (Mushroom tyrosinase [2]): 0.07 µM

O=c1cc(CSc2nnc(-c3ccccc3)n2NCc2ccc(O)cc2O)occ1O
IC50 (Mushroom tyrosinase [4]): 1.4 µM

COc1ccccc1/C=C/C=N/Nc1nnc(SCc2cc(=O)c(O)co2)n1N
IC50 (Mushroom tyrosinase [4]): 7.5 µM

Oc1cccnc1O
Ki (Mushroom tyrosinase [2]): 22 µM

O=C(N[C@@H](Cc1ccccc1)C(=O)OCc1cc(=O)c(O)c[nH]1)OCc1ccccc1
IC50 (Mushroom tyrosinase [5]): 9 µM

N[C@@H](Cc1ccc(=O)n(O)c1)C(=O)O
pKi [9]: 4.41

CCn1ccc(=O)c(O)c1
pKi [3]: 5.40

Mushroom tyrosinase (Agaricus bisporus) (from UniProt O42713+Q00024+C7FF04+C7FF05)
kcat (CC(C)(C)c1ccc(O)c(O)c1 [10]): 642 s⁻¹ | kcat [11]: 29 s⁻¹ | kcat (Cc1ccc(O)c(O)c1 [12]): 842 s⁻¹ | kcat (NCCc1ccc(O)c(O)c1 [13]): 475 s⁻¹ | kcat [14]: 107 s⁻¹ | kcat [15]: 7.9 s⁻¹ | kcat [16]: 108 s⁻¹ | kcat [17]: 68 s⁻¹ | kcat [18]: 403 s⁻¹ | kcat (O=C(O)Cc1ccc(O)c(O)c1): 632 s⁻¹ | kcat [19]: 6.2 s⁻¹ | kcat (Oc1ccccc1O [20]): 874 s⁻¹ | Km (CC(C)(C)c1ccc(O)c(O)c1 [21]): 2.8 µM | Km [22]: 7100 µM | Km (COc1ccc(O)cc1 [23]): 80 µM | Km (Cc1ccc(O)c(O)c1 [24]): 100 µM | Km (NCCc1ccc(O)c(O)c1 [25]): 720 µM | Km (NCCc1ccc(O)cc1 [26]): 0.51 µM | Km [27]: 800 µM | Km [28]: 0.21 µM | Km [29]: 2.5 µM | Km (O=C(O)Cc1ccc(O)cc1 [30]): 1910 µM | Km [31]: 0.12 µM | Km [32]: 3000 µM | Km (Oc1ccc(OC2CCCCO2)cc1 [33]): 0.033 µM | Km (Oc1ccccc1O [34]): 0.16 µM | Km (Oc1ccccc1 [35]): 0.7 µM | kcat (COc1ccc(O)cc1 [36]): 184 s⁻¹ | kcat (NCCc1ccc(O)cc1 [37]): 26 s⁻¹ | kcat [38]: 8.7 s⁻¹ | kcat (O=C(O)Cc1ccc(O)cc1 [39]): 44 s⁻¹ | kcat (Oc1ccccc1 [40]): 13 s⁻¹ | kcat [41]: 2.3 s⁻¹ | kcat [42]: 3.8 s⁻¹ | kcat [43]: 69 s⁻¹ | kcat (Oc1ccc(OC2CCCCO2)cc1 [44]): 1.95 s⁻¹

NC(=S)N/N=C\c1ccc(=O)n(O)c1
pKi (Tyrosinase [45]): 4.33 | IC50 (Mushroom tyrosinase [1]): 0.56 µM | Ki (Mushroom tyrosinase [2]): 0.56 µM | pKi [9]: 5.70

O=c1ccc(CO)cn1O
pKi [9]: 5.39

O=C(CCNC(=O)OCc1cc(=O)c(O)co1)OCc1cc(=O)c(O)co1
IC50 (Mushroom tyrosinase [5]): 7 µM

O=C(/C=C/c1ccc2c(c1)OCO2)OCc1cc(=O)c(O)co1
IC50 (Mushroom tyrosinase [5]): 1.4 µM

CC(C)[C@@H](NC(=O)[C@@H](N)Cn1ccc(=O)c(O)c1)C(=O)O
IC50 (Mushroom tyrosinase [5]): 10.3 µM

CCCCCCCCn1cc(O)c(=O)cc1C=O
IC50 (Mushroom tyrosinase [5]): 7.8 µM

CC(C)c1ccccc(=O)c1O [ALPHA-THUJAPLICIN]
Ki (Mushroom tyrosinase [2]): 9.5 µM | pIC50 (Tyrosinase [46]): < 3.00

O=c1cccccc1O [TROPOLONE]
Ki (Mushroom tyrosinase [2]): 8 µM

O=c1oc2ccc(O)cc2cc1O
IC50 (Mushroom tyrosinase [1]): 10 µM

CCCCCCCCn1cc(O)c(=O)cc1/C=N/OCC
IC50 (Mushroom tyrosinase [5]): 8 µM

N[C@@H](Cn1ccc(=O)c(O)c1)C(=O)O [L-MIMOSINE]
pKi [47]: 4.27 | pKi [3]: 5.10

O=C1/C(=C/c2ccc(=O)n(O)c2)Oc2cccc(O)c21
Ki (Mushroom tyrosinase [2]): 1.02 µM

O=c1cc(CSCCCCSCc2cc(=O)c(O)co2)occ1O
IC50 (Mushroom tyrosinase [5]): 3 µM

O=c1cc(CSC2CCCCC2)occ1O
IC50 (Mushroom tyrosinase [5]): 0.087 µM
